Source: the supplement of paper PMC13380429

Tests used:
Details in all cases: 72 h
U2OS [1] = test: cell viability relative to DMSO; higher = less toxic
Vero E6 [2] = test: as above
Calu-3 [3] = test: as above
Caco-2 [4] = test: as above
HepG2 [5] = test: as above
U2OS [6] = test: drug sensitivity score (DSS) for viability; higher = more toxic; extreme values may be limits of the assay
Vero E6 [7] = test: as above
Calu-3 [8] = test: as above
Caco-2 [9] = test: as above
HepG2 [10] = test: as above
U2OS [11] = test: relative viability EC50 (midpoint between 100% and the lowest measured viability); higher = less toxic
Vero E6 [12] = test: as above
Calu-3 [13] = test: as above
Caco-2 [14] = test: as above
HepG2 [15] = test: as above

Compound	cell viability (U2OS [1]; 1 nM) [%]	cell viability (U2OS [1]; 10 nM) [%]	cell viability (U2OS [1]; 100 nM) [%]	cell viability (U2OS [1]; 1000 nM) [%]	cell viability (U2OS [1]; 10000 nM) [%]	cell viability (Vero E6 [2]; 1 nM) [%]	cell viability (Vero E6 [2]; 10 nM) [%]	cell viability (Vero E6 [2]; 100 nM) [%]	cell viability (Vero E6 [2]; 1000 nM) [%]	cell viability (Vero E6 [2]; 10000 nM) [%]	cell viability (Calu-3 [3]; 1 nM) [%]	cell viability (Calu-3 [3]; 10 nM) [%]	cell viability (Calu-3 [3]; 100 nM) [%]	cell viability (Calu-3 [3]; 1000 nM) [%]	cell viability (Calu-3 [3]; 10000 nM) [%]	cell viability (Caco-2 [4]; 1 nM) [%]	cell viability (Caco-2 [4]; 10 nM) [%]	cell viability (Caco-2 [4]; 100 nM) [%]	cell viability (Caco-2 [4]; 1000 nM) [%]	cell viability (Caco-2 [4]; 10000 nM) [%]	cell viability (HepG2 [5]; 1 nM) [%]	cell viability (HepG2 [5]; 10 nM) [%]	cell viability (HepG2 [5]; 100 nM) [%]	cell viability (HepG2 [5]; 1000 nM) [%]	cell viability (HepG2 [5]; 10000 nM) [%]	drug sensitivity score (U2OS [6])	drug sensitivity score (Vero E6 [7])	drug sensitivity score (Calu-3 [8])	drug sensitivity score (Caco-2 [9])	drug sensitivity score (HepG2 [10])	relative viability EC50 (U2OS [11]) [µM]	relative viability EC50 (Vero E6 [12]) [µM]	relative viability EC50 (Calu-3 [13]) [µM]	relative viability EC50 (Caco-2 [14]) [µM]	relative viability EC50 (HepG2 [15]) [µM]
CNC[C@@H]1CC[C@@H](N)[C@@H](O[C@H]2[C@H](O)[C@@H](O[C@H]3OC[C@](C)(O)[C@H](NC)[C@H]3O)[C@H](N)C[C@@H]2N)O1 [micronomicin]	96	104	99.1	102	99.3	98.9	99.8	98.6	99.4	99.4	105	113	105	98	95.5	98.4	96.1	104	96	97.5	93.8	96.8	105	100	106	0	0	0	0	0	> 10	> 10	> 10	> 10	> 10
CCCCCNCC(N)=O [milacemide]	103	100	98.3	101	98.6	99.9	105	104	97.3	101	108	113	107	99.6	95	100	90.8	91.4	99.6	95.5	109	97.9	95.2	94.6	110	0	0	0	0	0	> 10	> 10	> 10	> 10	> 10
c1ccc2c(c1)OC[C@H](CNCCCOc1ccc3c(c1)OCO3)O2 [osemozotan]	96.9	99.2	96.9	101	94.2	106	104	103	85.3	100	94	103	109	108	95.9	90.5	108	101	96.5	114	99.1	105	112	97	106	0	0	0	0	0	> 10	> 10	> 10	> 10	> 10
NC(=O)CN1CC(O)CC1=O (stereo not given) [oxiracetam]	107	103	97.5	100	98.9	98.1	101	104	99.2	97.1	101	98	102	93.9	102	98.9	111	94.8	99.1	101	92.6	101	95.8	104	94.8	0	0	0	0	0	> 10	> 10	> 10	> 10	> 10
C[N+](C)(C)CC#CCN1CCCC1=O [oxotremorine-M]	102	105	97.5	102	99.5	94.5	93.5	93.5	96	95.7	94.9	98.3	91	102	102	102	104	93.7	107	98.6	92	108	92	102	99.1	0	0	0	0	0	> 10	> 10	> 10	> 10	> 10
Cn1c(=O)[nH]c2ncn(C)c2c1=O [paraxanthine]	97.4	101	98.2	100	99.7	95.5	95.8	99.2	93.5	98.2	94.9	101	92.9	89.8	98.1	95.4	106	97.4	102	91.8	102	100	106	103	93.2	0	0	0	0	0	> 10	> 10	> 10	> 10	> 10
FC(F)(F)C(F)(F)C(F)(F)N(C(F)(F)C(F)(F)C(F)(F)F)C(F)(F)C(F)(F)C(F)(F)F [perfluamine]	105	97	99.8	97.1	100	96.5	97.9	100	103	91.1	103	93.2	99.7	107	98.3	98	96.8	95	88.6	101	101	97.7	92.2	101	93.7	0	0	0	0	0	> 10	> 10	> 10	> 10	> 10
